Data: article PMC7938888, “Antidepressant drugs act by directly binding to TRKB neurotrophin receptors” (Cell, 2021)

Assays:
TRKB.Y433F = molecular target: T1, TRKB.Y433F (Mus musculus, UniProt P15209, Y433F); test: Cell-free ligand binding assay, TRKB.Y433F mutant; conditions: tritiated imipramine, biotinylated R,R-HNK
T1 construct: wild-type GFP-tagged full length TRKB or the GFP-tagged Y433F TRKB mutant; host or cells: HEK293T
Description: (§1) The cell-free assays (binding assays) were performed in white 96-well plates, based on the protocol used for western-blotting or ELISA ([Baeza-Raja et al., 2016]; [Das et al., 2015]). The plates were precoated with anti-GFP, anti-FLAG, anti-TRK or anti-TRKB antibody (1:1000) in carbonate buffer (pH 9.8), ON at 4°C. Following blocking with 3% BSA in PBS buffer (2 h at RT), 120 ug of total protein from each sample (of lysates from HEK293T cells transfected to overexpress GFP-TRKB.wt or GFP-TRKB.Y433F) were added and incubated overnight at 4°C under agitation. […] The luminescence was determined via HRP-conjugated streptavidin (1:10000, 1h, RT) activity reaction with ECL by a plate reader. The luminescence signal from blank wells (containing all the reagents but the sample lystates, substituted by the blocking buffer) was used as background. The specific signal was then calculated by subtracting the values of blank wells from the values of the samples with matched concentration of the biotinylated ligand. For Figure 2E, the precipitated TRKB.wt or Y433F was incubated with tritiated imipramine (0-30μM) and the radioactive emission of the ligand was determined by scintillation (OptiPhase Supermix cocktail: #1200-439; MicroBeta2, Perkin-Elmer). The scintillation signal from blank wells was used as background, and the specific signal was then calculated by subtracting the values of blank wells from the values of the samples with matched concentration of the radioactive ligand.

TRKB:PLC-γ1 interaction = TRKB:PLC-γ1 interaction ELISA in cortical cells; type: cell-based, rat; conditions: rat cortical cells
Description: The TRKB:pY (phosphorylated TRKB), TRKB:PLC-γ1, PLC-γ1:pTRKB.Y816 interactions and were determined by ELISA, based on the general method described in literature ([Antila et al., 2014]; [Fred et al., 2019]), with minor adjustments. Briefly, white 96-well plates (OptiPlate 96F-HB, Perkin Elmer) were coated with capturing anti-TRKB or PLC-γ1 antibody (1:1000) in carbonate buffer (pH = 9.8) overnight (ON) at 4°C. Following a blocking step with 2%BSA in TBS-T (2 h, RT), samples were incubated ON at 4°C. The incubation with antibody against pTRKB.Y816, PLC-γ1 or pY (1:2000, ON, 4°C) was followed by HRP-conjugated anti-Rb IgG (1:5000, 2h, RT) or HRP-conjugated streptavidin (1:10000, 2h, RT). Finally, the chemiluminescent signal generated by the reaction with ECL was analyzed in a plate reader (Varioskan Flash, Thermo Scientific).

[1] = test system: GluR1 subunit of AMPA receptors; test: Surface GluR1 ELISA in rat cortical cells; type: cell-based
Description: (§2) Briefly, the MG87.TRKB cells or primary cortical cells from rat or mouse embryos, cultivated in clear bottom 96-well plates (ViewPlate 96, Perkin Elmer), were washed with ice-cold PBS and fixed with 100μl of 4% PFA per well. […] Following washing, the samples were incubated with HRP-conjugated anti-goat or anti-rabbit IgG (1:5000 in blocking buffer) for 1h at RT. The cells were washed 4x with 200μl of PBS for 10 min each. Finally, the chemiluminescent signal generated by reaction with ECL was analyzed in a plate reader.

[2] = test system: GluR1 subunit of AMPA receptors; test: Surface GluR1 ELISA in cortical cells of TRKB.Y433F mice; type: cell-based, mouse
Description: as §2

mice [3] = test: Ocular dominance plasticity (monocular deprivation, intrinsic signal imaging); type: in vivo, mouse
Description: The “transparent skull” preparation was executed as described in literature ([Steinzeig et al., 2017]). Briefly, adult female mice (20-22 weeks old) were anesthetized via i.p. injection with a mixture containing: 0.05 mg/kg fentanyl (Hameln, Germany); 5 mg/kg midazolam (Hameln, Germany); 0.5 mg/kg medetomidine (Orion Pharma, Finland); diluted in saline (B Braun, Germany). The animals’ eyes were covered with protective-gel (Alcon, UK). The animal’s head was shaved and disinfected with ethanol and Betadine. The mouse head was then fixed on the stereotaxic frame and the temperature was maintained at 37°C. A mixture of lidocaine and adrenaline (Orion Pharma, Finland) was applied locally on the head and the skin was cut with spring scissors. The incision area was restricted 2 mm above the bregma and caudal edge of intraparietal bone. The scalp was removed and a focused air stream and a cotton swab were used to clean and stop bleeding. The periosteum was gently scratched away from the skull with an eye scalpel and the temporal muscles were pushed aside, in order to expose enough space around the area of interest to attach the metal holder. When the skull was smooth, white and dry, fat was removed from the skull rapidly by passing on it a cotton swab soaked in acetone and the air current was used to avoid its penetration into the bone. Then, with a metal stick, a thin layer of cyanoacrylate glue (Loctite 401, Henkel, Germany) was applied to the surface of the skull, in order to make the skull transparent. After waiting 10 minutes for the glue to dry, a first layer of acryl was applied on the skull surface with a brush. Acryl was used to prolong the life of the transparency and was prepared by stirring acrylic powder (EUBECOS, Germany) with methacrylate liquid (Densply, Germany) until a nail-polish consistency was reached. After 30 minutes, a second layer of acryl was applied and was left to dry overnight. Finally, the animals were injected s.c. with 5 mg/kg Carprofen (ScanVet, Nord Ireland) for postoperative analgesia and i.p. with a wake-up composed by: 1.2 mg/kg Naloxone (Orpha-Devel Handels und Vertriebs GmbH, Austria), opioid receptor antagonist; 0.5 mg/kg Flumazenil (Hameln, Germany), GABA-A receptor antagonist; 2.5 mg/kg Atipamezole (Vet Medic animal Health Oy, Finland), adrenergic receptor antagonist; diluted in saline (B Braun, Germany). The next day, isoflurane at 4% was used for a couple of minutes to induce the anesthesia and then it was reduced at 2% for the procedure. The acryl layer was polished only on the area of interest, using a hand drill with a polishing bit. […]
Optical imaging. The saturation of haemoglobin in the primary visual cortex of the right hemisphere was measured to assess cortical activity ([Cang et al., 2005]; [Kalatsky and Stryker, 2003]). […]

mice [4] = test: Object location memory (OLM) test; type: in vivo, mouse; conditions: wild-type mice, R,R-HNK
Description: Object-location memory (OLM): this test was performed in a square arena (28cm side) with opaque walls containing cues (black stripes or spots). The adult male and female mice (18-22 weeks old) were placed for 3 consecutive days (15min per session) in the arena with two identical objects (table tennis balls glued to caps of 50ml Falcon tubes) in the same position throughout the sessions (pretest).

NMDA receptors = test system: NMDA receptors; design: method as in Zanos et al., 2016, 2018; conditions: ref Zanos et al., 2016, 2018; cited from earlier work
TRKB [5] = molecular target: T2, TRKB (Mus musculus, UniProt P15209); test: Cell-free ligand binding assay on immobilised TRKB from HEK293T lysates; design: wild-type GFP-tagged full length TRKB or the GFP-tagged Y433F TRKB mutant; host or cells: HEK293T; conditions: biotinylated FLX 1 μM
T2 sequence (P15209 32-821): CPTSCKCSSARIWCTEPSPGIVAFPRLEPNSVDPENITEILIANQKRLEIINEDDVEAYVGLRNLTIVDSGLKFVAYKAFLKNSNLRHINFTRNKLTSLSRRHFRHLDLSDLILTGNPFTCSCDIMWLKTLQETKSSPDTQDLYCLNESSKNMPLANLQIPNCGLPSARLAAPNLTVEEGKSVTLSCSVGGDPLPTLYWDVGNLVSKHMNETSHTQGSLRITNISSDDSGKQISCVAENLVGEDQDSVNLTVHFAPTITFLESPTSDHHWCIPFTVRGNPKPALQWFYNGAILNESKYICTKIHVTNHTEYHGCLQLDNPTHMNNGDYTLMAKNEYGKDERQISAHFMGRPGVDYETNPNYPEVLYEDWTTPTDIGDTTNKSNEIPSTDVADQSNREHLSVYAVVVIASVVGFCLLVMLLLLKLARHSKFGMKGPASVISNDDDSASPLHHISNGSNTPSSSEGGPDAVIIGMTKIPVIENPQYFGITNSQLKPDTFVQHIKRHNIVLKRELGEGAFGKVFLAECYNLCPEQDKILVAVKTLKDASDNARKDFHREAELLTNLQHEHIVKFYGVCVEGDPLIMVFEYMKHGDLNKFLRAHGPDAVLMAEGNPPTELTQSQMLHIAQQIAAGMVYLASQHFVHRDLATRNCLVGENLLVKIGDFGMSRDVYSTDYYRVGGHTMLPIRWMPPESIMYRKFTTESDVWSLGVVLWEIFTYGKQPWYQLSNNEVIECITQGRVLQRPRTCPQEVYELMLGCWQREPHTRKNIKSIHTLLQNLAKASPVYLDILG
Description: as §1

TRKB [6] = molecular target: T2, TRKB; test: as above; design: wild-type GFP-tagged full length TRKB or the GFP-tagged Y433F TRKB mutant; host or cells: HEK293T; conditions: biotinylated R,R-HNK (Figure 2E)

T1 sequence (P15209 32-821 Y433F): as the sequence (P15209 32-821) above, with Y402F counted along it

## N[C@@]1(c2ccccc2Cl)CCC[C@@H](O)C1=O [R,R-HNK, 2R,6R-hydroxynorketamine]
TRKB.Y433F
  affinity to TRKB.Y433F compared with wild-type TRKB: much lower than to the wild-type TRKB
TRKB:PLC-γ1 interaction
  TRKB interaction with PLC-γ1: increased TRKB interaction with PLC-γ1
[1]
  cell surface localization of GluR1 subunits of AMPA receptors: increased cell surface localization of GluR1 subunits
[2]
  increase in surface GluR1 in neurons from TRKB.Y433F mutant mice: prevented
Mice [3]; TRKB.Y433F mice
  effect on shift in ocular dominance: lost
Mice [3]; adult mice, 10 mg/kg i.p. every second day for 8 days
  shift in ocular dominance after 7-day monocular deprivation: significant shift in OD
Mice [3]; wild-type mice co-treated with pravastatin
  effect on shift in ocular dominance: lost
Mice [4]
  object location memory: improved object location memory
NMDA receptors
  affinity to NMDA receptors: low affinity
TRKB [5]
  displacement of biotinylated FLX from TRKB: readily displaced
TRKB [5]; read-out: Ki for displacement of biotinylated FLX from TRKB
  Ki: 2230 nM
TRKB [6]
  Kd: 1820 nM
